Measurements: patent publication US20130035246A1, “Method and Apparatus for Determining a Mammal's Exposure to Chemical or Biological Agents” ([…], INC., priority 2011, published 2013)

Test system: peripheral blood mononuclear cell (PBMC) cultures
Test: Cytokine expression in PBMC cultures challenged with mold cells or PHA (multiplex immunoassay)
Format: cell-based, human
Details: PBMC from healthy volunteers, 18 hours
From the text: PBMC were isolated from blood collected from patients and control subjects as previously described [Gillis B, Gavin I M, Arbieva Z, King S T, Jayaraman S, Prabhakar B S. Identification of human cell responses to benzene and benzene metabolites. Genomics 2007; 90: 324-333 and Gavin I M, Gillis B, Arbieva Z, Prabhakar B S. Identification of human cell responses to hexavalent chromium. Environ Mol Mutagen 2007; 48: 650-657.] and incorporated herein by reference. One milliliter of blood plasma was also collected from the blood samples and stored frozen at −80° C. […]
After overnight culture of the PMBC, one milliliter of supernatant was removed from each plate, centrifuged at 16,000 g at +4° C. for 10 minutes, and clear cell-free culture media were collected. Cytokine concentrations in culture supernatants, as well as in plasma, were measured by multiplex immunoassay based on Luminex xMAP™ bead array technology using a Bio-Plex 200 fluorescence bead reader (BioRad Laboratories, Hercules, Calif.). […]
Statistical analyses were performed with Microsoft Excel and Analyse-it software (Analyse-it Software Ltd., Leeds, UK). An increase of cytokine expression in immunologic challenges was evaluated using a Student's t-test. […] The statistical significance of the difference in responses to various immunologic challenges was evaluated by using a one-way ANOVA test with Tukey type I error correction. […]

phytohemagglutinin [PHA]
IL-2, IL-4 and IL-5 in culture supernatants: detected
